Measured values: ChEMBL document CHEMBL5726766, “Sulfonamide compounds as voltage-gated sodium channel modulators” (2019)

Experiments:
[1] = (§1) Membrane potential dye assay: HEK-293 cells overexpressing the channel of interest were seeded in a 96-well plate at a density of 30000 cells/well and incubated at 37° C./5% CO2 for 48 hr. The assay was carried out using the Red Membrane Potential Dye (Molecular Devices) following the manufacturer's instructions. Briefly, the cells were incubated with 1× red membrane potential dye for 1.5 hour. The cells were then treated with various concentrations of the test compounds for 15-20 min followed by depolarization with 10-30 μM Veratridine. The fluorescence was read following excitation at 510-545 nm and emission at 565-625 nm in FLIPR. The “max-min” fluorescence values were used to calculate the % inhibition.; conditions: HEK293
[2] = as §1; conditions: HEK293; remark: listed apart in the source

Row | SMILES | IC50 [1] [nM] | IC50 [2] [nM]
1 | O=S(=O)(Nc1ncccn1)c1ccc2c(c1)OCC[C@H]2c1ccc(C(F)(F)F)cc1O[C@H]1CCOC1 | > 10000 | 149
2 | O=S(=O)(Nc1cccc(F)n1)c1ccc2c(c1)OCC[C@@H]2c1ccc(C(F)(F)F)cc1O[C@H]1CCOC1 |  | 0.9
3 | O=S(=O)(Nc1ncccn1)c1ccc2c(c1)OCC[C@@H]2c1ccc(C(F)(F)F)cc1O[C@@H]1CCOC1 | > 10000 | 1020
4 | O=S(=O)(Nc1cccc(F)n1)c1ccc2c(c1)OCC[C@H]2c1ccc(C(F)(F)F)cc1O[C@H]1CCOC1 | > 10000 | 831
5 | O=S(=O)(Nc1ncc(F)cn1)c1ccc2c(c1)OCC[C@@H]2c1ccc(C(F)(F)F)cc1-c1nccs1 | > 10000 | 11
6 | Cc1nc(-c2cc(C(F)(F)F)ccc2[C@@H]2CCOc3cc(S(=O)(=O)Nc4ncc(F)cn4)ccc32)cs1 | > 10000 | 16
7 | O=S(=O)(Nc1ncccn1)c1ccc2c(c1)OCC[C@H]2c1ccc(C(F)(F)F)cc1O[C@@H]1CCOC1 |  | 83
8 | Cc1nc(-c2cc(C(F)(F)F)ccc2[C@H]2CCOc3cc(S(=O)(=O)Nc4ncc(F)cn4)ccc32)cs1 | > 10000 | 8
9 | O=S(=O)(Nc1ncccn1)c1ccc2c(c1)OCC[C@H]2c1ccc(C(F)(F)F)cc1OCCCF | > 10000 | > 10000
10 | O=S(=O)(Nc1ncc(F)cn1)c1ccc2c(c1)OCC[C@H]2c1ccc(C(F)(F)F)cc1-c1nccs1 | > 10000 | 1120
